Laboratory results as given in patent US11590075B2, “Methods and products for reducing adhesions” (priority 2017, dated 2023).

Tests used:
primary fibroblasts [1] = assay: Alamar Blue proliferation assay; type: cell-based
Description: Alamar Blue Proliferation Assay Fibroblasts were seeded at a density of 2×10^4 cells/well in 96 well plates (Nuns, Sydney Australia) and cultured at 37° C., 5% CO2 for 24 hours Media was aspirated and cells were washed twice in phosphate buffered saline. The following treatments were used: • (i) No treatment control (NTC)—DMEM (Invitrogen, Sydney Australia) containing Penicillin at 500 U/mL, Streptomycin and Amphotericin B (Sigma-Aldrich, MO) at 0.5 mg/mL, 10% Fetal Bovine Serum. • (ii) 5 mM of Deferiprone dissolved in control media. • (iii) 10 mM Deferiprone dissolved in control media. • (iv) 20 mM Deferiprone dissolved in control media. Readings were taken at 4, 24, 48 and 72 hours. At each time point media was aspirated and fresh control media with 10% Alamar Blue was added and incubated in the dark for 6 hours at 37° C. 5% CO2. The plate was then read at 570 and 595 nm according to manufacturer's instructions. Fibroblasts proliferation was measured using the Alamar Blue reduction assay. The assay is based on use of resazurin, a non-toxic, cell permeable compound which is blue in colour and non-fluorescent. Resazurin is reduced to resorufin a compound that is red in colour and highly fluorescent. Viable cells continuously convert resazurin to resorufin, increasing the overall fluorescence and colour of the media surrounding cells.

[2] = system: primary human nasal epithelial cells (HNECs); assay: Cytotoxicity, LDH assay, HNECs; type: cell-based; conditions: exposure 1 h, 2 h, 3 h, 4 h, 5 h and 6 h; deferiprone 1, 5, 10, 20 mM (p>0.05); Triton X-100 0.5%
Description: Primary human nasal epithelial […] harvested from nasal polyps by gentle brushing in a method described by Ramezanpour et al. (2016) “Th17 cytokines disrupt the airway mucosal barrier in chronic rhinosinusitis” Mediators of inflammation; 2016: 9798206. doi: 10.1155/2016/9798206. Extracted cells were suspended in Bronchial Epithelial Growth Media (BEGM, CC-3170, Lonza, Walkersville, Md., USA), supplemented with 2% Ultroser G (Pall Corporation, Port Washington, N.Y., USA). The cell suspension was depleted of macrophages using anti-CD68 (Dako, Glostrup, Denmark) coated culture dishes, and HNECs were maintained with B-ALITM growth medium (Lonza, Walkersville, USA) in collagen coated flasks (Thermo Scientific, Walthman, Mass., USA) in a cell incubator at 37° C. with 5% CO2. Primary human fibroblasts or epithelial cells were grown in DMEM and BEGEM (Lonza, Walkersville, USA) medium respectively. Cells were maintained in a fully humidified incubator with 5% CO2 at 37° C. prior to cytotoxicity studies. […] The optical density (OD) was measured at 490 Mil on a FLUOstar OPTIMA plate reader (BMG Labtech, Ortenberg, Germany), Cell culture studies were performed as three independent experiments.

[3] = system: IL-6 production in human nasal epithelial cells; assay: IL-6 ELISA, HNECs with Poly (I:C); type: cell-based; conditions: 24 hours, in the presence of Poly (I:C) LMW
Description: (§1) Supernatants were collected from HNECs and fibroblasts after 24 hours of exposure with different concentrations of deferiprone in the presence/absence of the pro-inflammatory agent Poly (I:C) (10 μg/ml) or IL-1β (10 ng/ml Sigma, Saint Louis, USA) respectively. Interleukin-6 (IL-6) protein levels were estimated with an ELISA kit using rat anti-human IL-6 antibodies (BD Biosciences, New Jersey, USA), according to the manufacturer's instructions. All measurements were performed in duplicate using a FLUOstar OPTIMA plate reader (BMG Labtech, Ortenberg, Germany). The tissue sample concentration was calculated from a standard curve and corrected for protein concentration.

[4] = system: IL-6 production in nasal fibroblast cells; assay: IL-6 ELISA, nasal fibroblasts with IL-1β; type: cell-based, human; conditions: in the presence or absence of IL-13 (so in the source), after 24 hours
Description: as §1

[5] = system: primary human nasal fibroblasts; assay: Wound healing (migration) scratch assay, fibroblasts; type: cell-based; conditions: for wound healing of primary fibroblasts: after 44 hours
Description: In the fibroblast wound closure assay, fibroblasts were seeded in 24 well plates, stained with CellTrace™ Violet (Invitrogen/Life Technologies, USA) and allowed to get 80% confluent in 24 hours. A straight vertical scratch was made down through the fibroblast and HNEC-ALI cell monolayers by using a 200 μl pipette tip. The media and cell debris was aspirated carefully and culture media with different concentrations of deferiprone (1 mM, 5 mM, 10 mM, 20 mM) or media only (negative control) added to each well for 72 hours. At time zero, cells were treated with 1 μg/ml mitomycin (Accord Healthcare Inc, NDC 16729-108-11, USA) to inhibit cell proliferation. The wound closure (cell migration) was recorded using time-lapse LSM700 confocal scanning laser microscopy (Zeiss Microscopy, Germany), with an image recorded every 4 hours in a temperature and CO2 controlled chamber. Data was analysed using Image.

primary fibroblasts [6] = assay: Fibroblast wound healing protocol (gap closure, migration); type: cell-based
Description: 1. Fibroblast Wound Healing Protocol Fibroblasts were stained with CellTrace Proliferation Kit (Thermo-Fisher Scientific, Life Technologies, CA) and prepared in a suspension of 3×10^5 cells/mL of DMEM (Invitrogen, Sydney Australia) containing Penicillin at 500 U/mL, Streptomycin and Amphotericin B (Sigma-Aldrich, MO) at 0.5 mg/mL, 10% Fetal Bovine Serum. 70 uL of this suspension were seeded into each chamber inserts of the Ibidi culture-insert 24 (Ibidi GmbH, Munich, Germany) and cultured for 12 hours at 37° C., 5% CO2. The inserts were then removed with sterile forceps and cells washed twice in phosphate buffered saline. The following treatments were used: • (i) No treatment control (NTC) DMEM (Invitrogen, Sydney Australia) containing Penicillin at 500 U/mL, Streptomycin and Amphotericin B (Sigma-Aldrich, MO) at 0.5 mg/mL 10% Fetal Bovine Serum. • (ii) 5 mM of Deferiprone dissolved in control media. • (iii) 10 mM Deferiprone dissolved in control media. • (iv) 20 mM Deferiprone dissolved in control media. The effects on cells were recorded in real time at 37° C., 5% CO2 and imaged at intervals of 0, 8, 24 and 48 hours using Zeiss LSM700 Confocal (Carl Zeiss, Oberkochen, Germany) until gap closure. Image properties: DAPI blue signal; 405 nm laser; line step 2; line average 4; bit 12; zoom 0.5; 512×512 pixels; time series.

[7] = system: primary human nasal fibroblasts; assay: Cytotoxicity, LDH assay, nasal fibroblasts; type: cell-based; conditions: exposure 1 h, 2 h, 3 h, 4 h, 5 h and 6 h; deferiprone 1, 5, 10, 20 mM (p>0.05); Triton X-100 0.5%
Description: Sinonasal tissue was biopsied from paranasal sinus mucosa and transferred to a 6-well culture plate with 2 ml Dulbecco's Modified Eagle's medium (DMEM, Invitrogen, UK) supplemented with 1:100 L-glutamine, 10% Fetal bovine serum (FBS, Sigma-Aldrich), 1:100 ascorbic acid 2-phosphate, and 1:100 penicillin streptomycin (Gibco, Life Technologies) and incubated. Every 2-3 days, the tissue was washed gently with 1 ml phosphate-buffered saline (PBS) and medium was replaced with 1.5 ml fresh medium until fibroblasts became confluent after approximately 2 weeks. Once confluent, fibroblasts were washed with 2 ml PBS, trypsinized and collected followed by centrifugation at 400×g for 8 minutes. The supernatant was removed and pellet resuspended in 1 ml PBS along with 50 μl Dynabeads Epithelial Enrich (Invitrogen, USA). The tube was wrapped in parafilm and placed on a rotor mixer for 20 minutes at room temperature (RT). Supernatant containing fibroblasts were transferred to a T25 tissue culture flask and the tube containing the remaining beads discarded Primary human fibroblasts or epithelial cells were grown in DMEM and BEGEM (Lonza, Walkersville, USA) medium respectively. […] The optical density (OD) was measured at 490 Mil on a FLUOstar OPTIMA plate reader (BMG Labtech, Ortenberg, Germany), Cell culture studies were performed as three independent experiments.

[8] = system: type I collagen release in primary human nasal fibroblasts; assay: Collagen assay (procollagen type I C-peptide ELISA); type: cell-based; conditions: different concentrations (1, 5, 10, 20 mM)
Description: Primary human nasal fibroblasts were seeded in 24-well tissue-culture plates at a density of 5×10^5 grown in DMEM until confluent. […] Following treatment, the supernatant was collected and the protein level of type I collagen was measured with a procollagen type I C-peptide ELISA kit (Takara Bio Inc, Otsu, Japan). Experimental procedures followed the manufacturer's instruction. Briefly, 20 μl of culture medium and 100 μl of the antibody-POD conjugate solution were sequentially added into microtiter plates and reacted for 3 hours at 37° C. After 4× washing with washing buffer solution (1×PBST), 100 μl of the substrate solution was added and incubated for 15 minutes at RT. Finally, the stop solution (100 μl) was added and corresponding absorbance was recorded at 450 nm using a FLUOstar OPTIMA plate reader (BMG Labtech, Ortenberg, Germany).

HNEC-ALI cultures = assay: Wound healing (migration) scratch assay, HNEC-ALI; type: cell-based, human; conditions: 1, 5, 10, 20 mM for up to 68 hours; untreated healed by 68 hours
Description: HNECs were grown until 80% confluent then harvested for seeding onto collagen coated 6.5 mm permeable Transwell plates (BD Biosciences, San Jose, Calif., USA) at a density of 5×10^4 cells per well. Cells were maintained with B-ALI™ growth medium for 2-3 days in a cell incubator at 37° C. with 5% CO2. On day 3 after seeding, the apical media was removed and the basal media replaced with B-ALI™ differentiation media, exposing the apical cell surface to the atmosphere. Human nasal epithelial cultures at air liquid interface (HNEC-ALI) were maintained for a minimum of 14 days for development of tight junctions and 28 days for cilia generation. In the fibroblast wound closure assay, fibroblasts were seeded in 24 well plates, stained with CellTrace™ Violet (Invitrogen/Life Technologies, USA) and allowed to get 80% confluent in 24 hours. A straight vertical scratch was made down through the fibroblast and HNEC-ALI cell monolayers by using a 200 μl pipette tip. […] The wound closure (cell migration) was recorded using time-lapse LSM700 confocal scanning laser microscopy (Zeiss Microscopy, Germany), with an image recorded every 4 hours in a temperature and CO2 controlled chamber. Data was analysed using Image.

Cc1c(O)c(=O)ccn1C [deferiprone, 3-hydroxy-1,2-dimethylpyridin-4(1H)-one]
inhibition of fibroblast proliferation (Alamar Blue) (primary fibroblasts [1]; 5, 10, 20 mM deferiprone, readings at 4, 24, 48, 72 hours, 2-way ANOVA): significant dose dependent effect | time course of inhibition of proliferation (primary fibroblasts [1]; occurred over a period of at least 24 to 72 hours): time dependent | LDH release (cytotoxicity) in HNECs [2]: no significant increase in LDH release | reduction of IL-6 protein concentrations in HNECs ([3]; 10 mM, p=0.001): 80% | reduction of IL-6 protein concentrations in HNECs ([3]; 20 mM, p=0.0001): 96% | secretion of IL-6 in nasal fibroblasts [4]: did not alter the secretion of IL-6 | wound healing of primary fibroblasts ([5]; 5 mM): significantly delayed healing | wound healing of primary fibroblasts ([5]; 10 mM): significantly delayed healing | wound closure of primary fibroblasts ([5]; 20 mM, at 28 h and all time points thereafter, untreated closed after 44 hours): significant delay in wound closure | closure of void in fibroblasts (primary fibroblasts [6]; 20 mM deferiprone, up to 48 hours, control cells close the void after 48 hours): minimal closure | fibroblast migration (primary fibroblasts [6]; within 48 hours, 5, 10, 20 mM): inhibited fibroblast migration | LDH release (cytotoxicity) in fibroblasts [7]: no significant increase in LDH release | collagen protein concentrations in supernatants of fibroblast monolayers ([8]; 24 hours as printed, absence of ASC, p<0.0001): significantly reduced collagen protein concentrations | collagen secretion in the presence of L-Ascorbic acid-2 phosphate (ASC) ([8]; with ASC): significantly inhibited collagen secretion in a dose dependent manner | wound healing in HNEC-ALI cultures (HNEC-ALI cultures): did not show any significant delay in wound healing
